The text below walks through data of the NIST ThermoML archive (doi:10.1021/je200637v).

± gives the expanded uncertainty stated by the source.

The nature of this data set: activity coefficient (dimensionless); of the first substance listed, at infinite dilution; xn = mol fraction of the nth substance listed. The settings on record: Liquid, Chromatography, x1 = 0.

With `CCCC(C)=O` [pentan-2-one] + CCCCCCCC[N+](CCCCCCCC)(CCCCCCCC)CCCCCCCC.O=S(=O)([N-]S(=O)(=O)C(F)(F)F)C(F)(F)F, the activity coefficient reads like this: (322.85 K) 0.35 ± 0.04; (332.65 K) 0.36 ± 0.04; (343.15 K) 0.37 ± 0.03.

In the case of `ClCCl` [dichloromethane] + CCCCCCCC[N+](C)(C)C.O=S(=O)([N-]S(=O)(=O)C(F)(F)F)C(F)(F)F, the activity coefficient (322.85 K) stood at 0.51 ± 0.03, the activity coefficient (332.65 K) was 0.53 ± 0.03 and the activity coefficient (343.15 K) was found to be 0.54 ± 0.03.

As to `CC#N` [acetonitrile] + CCCCCCCC[N+](C)(C)C.O=S(=O)([N-]S(=O)(=O)C(F)(F)F)C(F)(F)F, the activity coefficient (322.85 K) was 0.48 ± 0.03, the activity coefficient (332.65 K) came out at 0.46 ± 0.03 and the activity coefficient (343.15 K) came to 0.44 ± 0.03.

As for `CC(C)CO` [2-methyl-1-propanol] + CCCCCCCCCC[N+](C)(C)C.O=S(=O)([N-]S(=O)(=O)C(F)(F)F)C(F)(F)F, the activity coefficient is, setting by setting: (322.85 K) 1.59 ± 0.06; (332.65 K) 1.47 ± 0.06; (343.15 K) 1.31 ± 0.05.

As to `ClC(Cl)(Cl)Cl` [tetrachloromethane] + CCCCCCCC[N+](CCCCCCCC)(CCCCCCCC)CCCCCCCC.O=S(=O)([N-]S(=O)(=O)C(F)(F)F)C(F)(F)F, the activity coefficient runs as follows: (322.85 K) 0.63 ± 0.03; (332.65 K) 0.64 ± 0.03; (343.15 K) 0.64 ± 0.03.

In the case of `CCC[N+](=O)[O-]` [1-nitropropane] + CCCCCCCC[N+](C)(C)C.O=S(=O)([N-]S(=O)(=O)C(F)(F)F)C(F)(F)F, the activity coefficient is, setting by setting: (322.85 K) 0.62 ± 0.03; (332.65 K) 0.61 ± 0.03; (343.15 K) 0.6 ± 0.03.

For the compound `CCCO` [propan-1-ol] + CCCCCCCC[N+](CCCCCCCC)(CCCCCCCC)CCCCCCCC.O=S(=O)([N-]S(=O)(=O)C(F)(F)F)C(F)(F)F, the activity coefficient was determined as 1.22 ± 0.04 (322.85 K), 1.14 ± 0.03 (332.65 K) and 1.04 ± 0.03 (343.15 K).

As to `CCCCCCCCCC` [decane] + CCCC[N+](C)(CCCC)CCCC.O=S(=O)([N-]S(=O)(=O)C(F)(F)F)C(F)(F)F, the activity coefficient by setting is: (322.85 K) 19.6 ± 0.91; (332.65 K) 19.2 ± 0.89; (343.15 K) 17.8 ± 0.82.

Turning to `CC1CCCCC1` [methylcyclohexane] + CCCCCCCCCC[N+](C)(C)C.O=S(=O)([N-]S(=O)(=O)C(F)(F)F)C(F)(F)F, the activity coefficient runs as follows: (322.85 K) 3.57 ± 0.16; (332.65 K) 3.57 ± 0.16; (343.15 K) 3.39 ± 0.15.

Turning to `CC(C)CO` [2-methyl-1-propanol] + CCCCCCCC[N+](CCCCCCCC)(CCCCCCCC)CCCCCCCC.O=S(=O)([N-]S(=O)(=O)C(F)(F)F)C(F)(F)F, the activity coefficient (322.85 K) amounted to 1.17 ± 0.04, the activity coefficient (332.65 K) was found to be 1.09 ± 0.03 and the activity coefficient (343.15 K) amounted to 1 ± 0.03.

On to `CCC(=O)CC` [pentan-3-one] + CCCCCCCC[N+](C)(C)C.O=S(=O)([N-]S(=O)(=O)C(F)(F)F)C(F)(F)F, for which the activity coefficient turned out to be 0.52 ± 0.03 (322.85 K), 0.53 ± 0.03 (332.65 K) and 0.54 ± 0.03 (343.15 K).

Turning to `CCC(C)CC` [3-methylpentane] + CCCCCCCC[N+](CCCCCCCC)(CCCCCCCC)CCCCCCCC.O=S(=O)([N-]S(=O)(=O)C(F)(F)F)C(F)(F)F, the activity coefficient (322.85 K) came to 1.22 ± 0.04, the activity coefficient (332.65 K) worked out at 1.22 ± 0.04 and the activity coefficient (343.15 K) is 1.21 ± 0.04.

Regarding `ClCCl` [dichloromethane] + CCCCCCCCCC[N+](C)(C)C.O=S(=O)([N-]S(=O)(=O)C(F)(F)F)C(F)(F)F, the activity coefficient runs as follows: (322.85 K) 0.51 ± 0.03; (332.65 K) 0.55 ± 0.03; (343.15 K) 0.56 ± 0.03.

Regarding `CCN(CC)CC` [triethylamine] + CCCCCCCCCC[N+](C)(C)C.O=S(=O)([N-]S(=O)(=O)C(F)(F)F)C(F)(F)F, the activity coefficient (322.85 K) amounted to 2.17 ± 0.1, the activity coefficient (332.65 K) worked out at 2.4 ± 0.11 and the activity coefficient (343.15 K) worked out at 2.31 ± 0.1.

`C1CCCCCC1` [cycloheptane] + CCCC[N+](C)(CCCC)CCCC.O=S(=O)([N-]S(=O)(=O)C(F)(F)F)C(F)(F)F: the activity coefficient is, setting by setting: (322.85 K) 12.4 ± 0.57; (332.65 K) 17.7 ± 0.82; (343.15 K) 23.9 ± 1.1.

Consider `CCC(C)CC` [3-methylpentane] + CCCC[N+](C)(CCCC)CCCC.O=S(=O)([N-]S(=O)(=O)C(F)(F)F)C(F)(F)F, for which the activity coefficient came to 6.1 ± 0.28 (322.85 K), 6.17 ± 0.28 (332.65 K) and 5.86 ± 0.27 (343.15 K).

On to `CCCCCCCC` [octane] + CCCC[N+](C)(CCCC)CCCC.O=S(=O)([N-]S(=O)(=O)C(F)(F)F)C(F)(F)F, for which the activity coefficient (322.85 K) was 11.6 ± 0.53, the activity coefficient (332.65 K) is 11.5 ± 0.53 and the activity coefficient (343.15 K) came to 10.8 ± 0.5.

As for `C=CCCCC` [hex-1-ene] + CCCCCCCCCC[N+](C)(C)C.O=S(=O)([N-]S(=O)(=O)C(F)(F)F)C(F)(F)F, the activity coefficient was found to be 2.7 ± 0.12 (322.85 K), 2.86 ± 0.13 (332.65 K) and 2.76 ± 0.13 (343.15 K).

Turning to `C=CCCCC` [hex-1-ene] + CCCCCCCC[N+](C)(C)C.O=S(=O)([N-]S(=O)(=O)C(F)(F)F)C(F)(F)F, the activity coefficient is, setting by setting: (322.85 K) 3.99 ± 0.18; (332.65 K) 3.8 ± 0.17; (343.15 K) 3.6 ± 0.16.

Take `CCCC(C)=O` [pentan-2-one] + CCCCCCCCCC[N+](C)(C)C.O=S(=O)([N-]S(=O)(=O)C(F)(F)F)C(F)(F)F: the activity coefficient is, setting by setting: (322.85 K) 0.44 ± 0.03; (332.65 K) 0.47 ± 0.03; (343.15 K) 0.47 ± 0.03.

As to `CCC(C)CC` [3-methylpentane] + CCCCCCCCCC[N+](C)(C)C.O=S(=O)([N-]S(=O)(=O)C(F)(F)F)C(F)(F)F, the activity coefficient came out at 3.88 ± 0.18 (322.85 K), 3.78 ± 0.17 (332.65 K) and 3.62 ± 0.16 (343.15 K).

`CCC(C)=O` [butanone] + CCCCCCCCCC[N+](C)(C)C.O=S(=O)([N-]S(=O)(=O)C(F)(F)F)C(F)(F)F: the activity coefficient runs as follows: (322.85 K) 0.33 ± 0.04; (332.65 K) 0.32 ± 0.04; (343.15 K) 0.29 ± 0.04.

With `C#CCCCCC` [1-heptyne] + CCCC[N+](C)(CCCC)CCCC.O=S(=O)([N-]S(=O)(=O)C(F)(F)F)C(F)(F)F, the activity coefficient stood at 2.79 ± 0.13 (322.85 K), 2.89 ± 0.13 (332.65 K) and 2.85 ± 0.13 (343.15 K).

For the compound `CC(C)OC(C)C` [diisopropyl ether] + CCCCCCCC[N+](C)(C)C.O=S(=O)([N-]S(=O)(=O)C(F)(F)F)C(F)(F)F, the activity coefficient by setting is: (322.85 K) 3.22 ± 0.15; (332.65 K) 3.15 ± 0.14; (343.15 K) 3.08 ± 0.14.

For `CC1CCCCC1` [methylcyclohexane] + CCCCCCCC[N+](C)(C)C.O=S(=O)([N-]S(=O)(=O)C(F)(F)F)C(F)(F)F, the activity coefficient was determined as 5.23 ± 0.24 (322.85 K), 4.93 ± 0.23 (332.65 K) and 4.6 ± 0.21 (343.15 K).

On to `CCOCC` [diethyl ether] + CCCCCCCCCC[N+](C)(C)C.O=S(=O)([N-]S(=O)(=O)C(F)(F)F)C(F)(F)F, for which the activity coefficient runs as follows: (322.85 K) 1.23 ± 0.04; (332.65 K) 1.24 ± 0.04; (343.15 K) 1.21 ± 0.04.

Regarding `C1CCCCC1` [cyclohexane] + CCCCCCCCCC[N+](C)(C)C.O=S(=O)([N-]S(=O)(=O)C(F)(F)F)C(F)(F)F, the activity coefficient (322.85 K) was 2.9 ± 0.13, the activity coefficient (332.65 K) stood at 2.96 ± 0.13 and the activity coefficient (343.15 K) was determined as 2.8 ± 0.13.

For `ClC(Cl)Cl` [trichloromethane] + CCCCCCCC[N+](CCCCCCCC)(CCCCCCCC)CCCCCCCC.O=S(=O)([N-]S(=O)(=O)C(F)(F)F)C(F)(F)F, the activity coefficient by setting is: (322.85 K) 0.34 ± 0.04; (332.65 K) 0.35 ± 0.04; (343.15 K) 0.36 ± 0.04.

Take `CCc1ccccc1` [ethylbenzene] + CCCCCCCCCC[N+](C)(C)C.O=S(=O)([N-]S(=O)(=O)C(F)(F)F)C(F)(F)F: the activity coefficient was 1.16 ± 0.04 (322.85 K), 1.2 ± 0.04 (332.65 K) and 1.19 ± 0.04 (343.15 K).

On to `CCCCO` [butan-1-ol] + CCCCCCCC[N+](C)(C)C.O=S(=O)([N-]S(=O)(=O)C(F)(F)F)C(F)(F)F, for which the activity coefficient came out at 2.01 ± 0.09 (322.85 K), 1.8 ± 0.08 (332.65 K) and 1.59 ± 0.06 (343.15 K).

Consider `C=CCCCC` [hex-1-ene] + CCCCCCCC[N+](CCCCCCCC)(CCCCCCCC)CCCCCCCC.O=S(=O)([N-]S(=O)(=O)C(F)(F)F)C(F)(F)F, for which the activity coefficient runs as follows: (322.85 K) 1.05 ± 0.03; (332.65 K) 1.05 ± 0.03; (343.15 K) 1.04 ± 0.03.

Consider `CCC(=O)CC` [pentan-3-one] + CCCCCCCCCC[N+](C)(C)C.O=S(=O)([N-]S(=O)(=O)C(F)(F)F)C(F)(F)F, for which the activity coefficient was found to be 0.41 ± 0.03 (322.85 K), 0.43 ± 0.03 (332.65 K) and 0.44 ± 0.03 (343.15 K).

As to `CCCCCCCCC` [nonane] + CCCCCCCCCC[N+](C)(C)C.O=S(=O)([N-]S(=O)(=O)C(F)(F)F)C(F)(F)F, the activity coefficient reads like this: (322.85 K) 8.87 ± 0.41; (332.65 K) 8.63 ± 0.4; (343.15 K) 7.61 ± 0.35.

`C#CCCCCC` [1-heptyne] + CCCCCCCC[N+](C)(C)C.O=S(=O)([N-]S(=O)(=O)C(F)(F)F)C(F)(F)F: the activity coefficient is 2.48 ± 0.11 (322.85 K), 2.46 ± 0.11 (332.65 K) and 2.39 ± 0.11 (343.15 K).

For `CC(C)O` [propan-2-ol] + CCCCCCCC[N+](C)(C)C.O=S(=O)([N-]S(=O)(=O)C(F)(F)F)C(F)(F)F, the activity coefficient (322.85 K) is 1.63 ± 0.07 and the activity coefficient (343.15 K) was 1.32 ± 0.05.

For `CC(C)CC(C)(C)C` [2,2,4-trimethylpentane] + CCCCCCCC[N+](CCCCCCCC)(CCCCCCCC)CCCCCCCC.O=S(=O)([N-]S(=O)(=O)C(F)(F)F)C(F)(F)F, the activity coefficient by setting is: (322.85 K) 1.52 ± 0.06; (332.65 K) 1.51 ± 0.06; (343.15 K) 1.5 ± 0.06.

For the compound `CCCCCCCCC` [nonane] + CCCCCCCC[N+](C)(C)C.O=S(=O)([N-]S(=O)(=O)C(F)(F)F)C(F)(F)F, the activity coefficient turned out to be 15.9 ± 0.74 (322.85 K), 14.8 ± 0.68 (332.65 K) and 13.4 ± 0.62 (343.15 K).
